{
  "source": "patent US7348323B2",
  "about": "“Pyrrolo [2,3-c] pyridine derivatives” (Hoffmann-La Roche Inc., priority 2005, dated 2008)",
  "data": [
    {"target": "T1, histamine 3 receptor (H3R) (Homo sapiens, UniProt Q9Y5N1)", "T1 construct": "expressed in transfected cells; host or cells: CHO cells (HR3-CHO)", "T1 sequence (Q9Y5N1 whole entry)": "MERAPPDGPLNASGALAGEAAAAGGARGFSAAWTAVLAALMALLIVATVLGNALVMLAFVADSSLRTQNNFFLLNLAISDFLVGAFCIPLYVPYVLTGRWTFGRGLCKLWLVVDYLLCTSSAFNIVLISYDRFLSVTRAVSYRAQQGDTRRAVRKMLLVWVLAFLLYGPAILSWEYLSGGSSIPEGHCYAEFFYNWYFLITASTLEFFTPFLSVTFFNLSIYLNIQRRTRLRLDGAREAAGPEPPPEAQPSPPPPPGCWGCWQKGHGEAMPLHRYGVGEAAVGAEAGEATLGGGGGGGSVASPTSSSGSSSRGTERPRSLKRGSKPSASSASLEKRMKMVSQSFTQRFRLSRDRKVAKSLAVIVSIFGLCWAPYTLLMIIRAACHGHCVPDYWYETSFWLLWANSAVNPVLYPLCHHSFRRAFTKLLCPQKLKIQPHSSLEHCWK", "experiment": "Competition binding assay with 3H-(R)α-methylhistamine on membranes of the human HR3-CHO cell line", "conditions": "membrane of the human HR3-CHO cell line; 3H(R)α-Methylhistamine 1 nM; Ki calculated from IC50 by Cheng-Prusoff equation", "description": "Binding Assay with ^3H-(R)α-methylhistamine\nSaturation binding experiments were performed using HR3-CHO membranes prepared as described in Takahashi, K, Tokita, S., Kotani, H. (2003) J. Pharmacol. Exp. Therapeutics 307, 213-218.\nAn appropriate amount of membrane (60 to 80 μg protein/well) was incubated with increasing concentrations of ^3H(R)α-Methylhistamine di-hydrochloride (0.10 to 10 nM). Non specific binding was determined using a 200 fold excess of cold (R)α-Methylhistamine dihydrobromide (500 nM final concentration). The incubation was carried out at room temperature (in deep-well plates shaking for three hours). The final volume in each well was 250 μl. The incubation was followed by rapid filtration on GF/B filters (pre-soaked with 100 μl of 0.5% PEI in Tris 50 mM shaking at 200 rpm for two hours). The filtration was made using a cell-harvester and the filter plates were then washed five times with ice cold washing buffer containing 0.5 M NaCl. After harvesting, the plates were dried at 55° C. for 60 min, then we added scintillation fluid (Microscint 40, 40 microl in each well) and the amount of radioactivity on the filter was determined in Packard top-counter after shaking the plates for two hours at 200 rpm at room temperature.\nBinding Buffer: 50 mM Tris-HCl pH 7.4 and 5 mM MgCl2x6H2O pH 7.4. Washing Buffer: 50 mM Tris-HCl pH 7.4 and 5 mM MgCl2x6H2O and 0.5 M NaCl pH 7.4.\nIndirect measurement of affinity of H3R inverse agonists: twelve increasing concentrations (ranging from 10 μM to 0.3 nM) of the selected compounds were always tested in competition binding experiments using membrane of the human HR3-CHO cell line. An appropriate amount of protein, e.g. approximately 500 cpm binding of RAMH at Kd, were incubated for 1 hour at room temperature in 250 μl final volume in 96-well plates in presence of ^3H(R)α-Methylhistamine (1 nM final concentration=Kd). […]\nAll compounds were tested at a single concentration in duplicates. […] Ki's were calculated from IC50 based on Cheng-Prusoff equation (Cheng, Y, Prusoff, W H (1973) Biochem Pharmacol 22, 3099-3108).", "units": {"Ki": "nM"}, "values": [
      {"smiles": "CC(C)N1CCN(c2cc3cc(C(=O)N4CCC(F)(F)CC4)[nH]c3cn2)CC1", "note": "[Example 27, (4,4-difluoro-piperidin-1-yl)-[5-(4-isopropyl-piperazin-1-yl)-1H-pyrrolo[2,3-c]pyridin-2-yl]-methanone]", "Ki": 63.1},
      {"smiles": "CCCNC(=O)c1cc2cc(N3CCN(C4CCCC4)CC3)ncc2[nH]1", "note": "[Example 13, 5-(4-cyclopentyl-piperazin-1-yl)-1H-pyrrolo[2,3-c]pyridine-2-carboxylic acid propylamide]", "Ki": 27.4},
      {"smiles": "O=C(c1cc2cc(N3CCN(C4CCCC4)CC3)ncc2[nH]1)N1CCCC1", "note": "[Example 1, [5-(4-Cyclopentyl-piperazin-1-yl)-1H-pyrrolo[2,3-c]pyridin-2-yl]-pyrrolidin-1-yl-methanone]", "Ki": 33}
    ]}
  ]
}
